Holding throughout (type): cell-based
The test system of experiment [1] is E. faecalis resistant to vancomycin. In words: Antibacterial activity, microdilution in culture broth (NCCLS), strain B. As to conditions: Enterococcus faecalis, G (+) hospital strain, inoculum 5×10^5 UFC/ml. From the text: (§1) The antibacterial activity of the new synthesised compounds on the various strains of the bacterial species was implemented using the technique of microdilution in culture broth according to the regulations of the National Committee for Clinical Laboratory Standards (NCCLS), (NCCLS. 1993. Methods for dilution antimicrobial susceptibility tests for bacteria that grow aerobically. Approved standard M7-A3. NCCLS, Vilanova. Pa., and NCCLS. 1993. Methods for dilution antimicrobial susceptibility tests for anaerobic bacteria […]. Approved standard M1-A3. NCCLS, Vilanova. Pa.).
(§2) The inoculum used was 5×10^5 UFC/ml following dilution of the cultures overnight in the exponential phase of bacterial growth.
(§3) The MIC expressed in mg/l was defined as the minimum concentration of antibiotic which inhibited any visible growth.
(§4) Linezolid was included as comparative compound.
(§5) The compounds were tested on the strains of G(+) and G(−) bacteria set out in Table 1, in which: […]

For experiment [2], the system named is S. aureus resistant to meticillin. Nature of the experiment: Antibacterial activity, microdilution in culture broth (NCCLS), strain A. As to conditions: Staphylococcus aureus, G (+) hospital strain, inoculum 5×10^5 UFC/ml.
Source text: as §1, §2, §3, §4, §5

The subject of a further experiment is M. Catarrahalis. In words: Antibacterial activity, microdilution in culture broth (NCCLS), strain J. As to conditions: G (−) hospital strain, inoculum 5×10^5 UFC/ml.
Source text: as §1, §2, §3, §4, §5
A general note: Dilution methods test growth across graded concentrations, often in twofold steps.

The next experiment relates to S. agalactiae. Nature of the experiment: Antibacterial activity, microdilution in culture broth (NCCLS), strain D. As to conditions: Streptococcus agalactiae, G (+) hospital strain, inoculum 5×10^5 UFC/ml.
Source text: as §1, §2, §3, §4, §5

In the next experiment the test system is S. pyogenes. In words: Antibacterial activity, microdilution in culture broth (NCCLS), strain F. As to conditions: Streptococcus pyogenes, G (+) hospital strain, inoculum 5×10^5 UFC/ml.
Source text: as §1, §2, §3, §5

In experiment [3] the test system is S. pneumoniae resistant to penicillin. In words: Antibacterial activity, microdilution in culture broth (NCCLS), strain C. As to conditions: Streptococcus pneumoniae, G (+) hospital strain, inoculum 5×10^5 UFC/ml.
Source text: as §1, §2, §3, §4, §5

The test system of a further experiment is S. epidermidis. In words: Antibacterial activity, microdilution in culture broth (NCCLS), strain E. As to conditions: Staphylococcus epidermidis, G (+) hospital strain, inoculum 5×10^5 UFC/ml.
Source text: as §1, §2, §3, §4, §5

A further experiment concerns B. fragilis. Nature of the experiment: Antibacterial activity, microdilution in culture broth (NCCLS), strain G (anaerobic). As to conditions: Bacteroides fragilis, anaerobic hospital strain, inoculum 5×10^5 UFC/ml.
Source text: as §1, §2, §3, §4, §5

The next experiment deals with H. influenzae. Nature of the experiment: Antibacterial activity, microdilution in culture broth (NCCLS), strain I. As to conditions: Haemophilus influenzae, G (−) hospital strain, inoculum 5×10^5 UFC/ml.
Source text: as §1, §2, §3, §4, §5

For the next experiment, the system named is E. coli. In words: Antibacterial activity, microdilution in culture broth (NCCLS), strain H. The note with it: Escherichia coli, G (−) hospital strain, inoculum 5×10^5 UFC/ml.
Source text: as §1, §2, §3, §4, §5

Molecules are shown by their SMILES. In brackets after ≈: the same amount, converted by molar mass.

As for `CCOC(=O)c1cn(CCF)c2c(F)c(N3CCN(c4ccc(N5C[C@H](CNC(C)=O)OC5=O)cc4F)CC3)c(F)cc2c1=O` [EXAMP. 17, 7-(4-{4-[5-(S)-(acetylamino-methyl)-2-oxo-oxazolidin-3-yl]-2-fluoro-phenyl}-piperazin-1-yl)-6,8-difluoro-1-(2-fluoro-ethyl)-4-oxo-1,4-dihydro-quinoline-3-carboxylic Acid Ethyl Ester], the MIC in [1] is 2 µg/mL (≈ 3.16 µM); in experiment [2], 2 µg/mL (≈ 3.16 µM); in the experiment with M. Catarrahalis, 4 µg/mL (≈ 6.31 µM); in the experiment on S. agalactiae it was 0.5 µg/mL (≈ 0.789 µM); against S. pyogenes, 1 µg/mL (≈ 1.58 µM); in experiment [3], 0.5 µg/mL (≈ 0.789 µM). For the same compound, the MIC was 1 µg/mL (≈ 1.58 µM) in the experiment on S. epidermidis, 4 µg/mL (≈ 6.31 µM) against B. fragilis, 64 µg/mL (≈ 101 µM) against H. influenzae and over 64 µg/mL against E. coli.
As for `C#CC(O)[C@H]1CN(c2ccc(N3CCN(c4nc5c(cc4F)c(=O)c(C(=O)O)cn5-c4ccc(F)cc4F)CC3)c(F)c2)C(=O)O1` (stereo partly drawn) [EXAMP. 19, 1-(2,4-difluoro-phenyl)-6-fluoro-7-(4-{2-fluoro-4-[5-(R)-(1-hydroxy-prop-2-inyl)-2-oxo-oxazolidin-3-yl]-phenyl}-piperazin-1-yl)-4-oxo-1,4-dihydro-[1,8]Naphthyridine-3-carboxylic Acid], the MIC amounted to 8 µg/mL (≈ 12.5 µM) in [1]; 4 µg/mL (≈ 6.27 µM) in experiment [2]; 2 µg/mL (≈ 3.14 µM) with M. Catarrahalis; 8 µg/mL (≈ 12.5 µM) against S. agalactiae; 8 µg/mL (≈ 12.5 µM) in the experiment on S. pyogenes; 4 µg/mL (≈ 6.27 µM) in experiment [3]. For the same compound, the MIC against S. epidermidis is 4 µg/mL (≈ 6.27 µM); against B. fragilis, over 64 µg/mL; against H. influenzae, 1 µg/mL (≈ 1.57 µM); against E. coli, 32 µg/mL (≈ 50.2 µM).
For `CC(=O)NC[C@H]1CN(c2ccc(N3CCN(c4nc5c(cc4F)c(=O)c(C(=O)O)cn5-c4ccc(F)cc4F)CC3)c(F)c2)C(=O)O1` [EXAMP. 20, 7-(4-{4-[5-(S)-(acetylamino-methyl)-2-oxo-oxazolidin-3-yl]-2-fluoro-phenyl}-piperazin-1-yl)-1-(2,4-difluoro-phenyl)-6-fluoro-4-oxo-1,4-dihydro-[1,8]Naphthyridine-3-carboxylic Acid], the MIC in [1] was determined as 2 µg/mL (≈ 3.06 µM); in [2] it was 1 µg/mL (≈ 1.53 µM); against M. Catarrahalis, 4 µg/mL (≈ 6.11 µM); with S. agalactiae, 1 µg/mL (≈ 1.53 µM); with S. pyogenes, 1 µg/mL (≈ 1.53 µM); in [3], 1 µg/mL (≈ 1.53 µM). Moreover, the MIC is 0.5 µg/mL (≈ 0.764 µM) against S. epidermidis, over 64 µg/mL against B. fragilis, 2 µg/mL (≈ 3.06 µM) with H. influenzae and over 64 µg/mL in the experiment on E. coli.
`CC(=O)NC[C@H]1CN(c2ccc(N3CCN(c4nc5c(cc4F)c(=O)c(C(=O)O)cn5C4CC4)CC3)c(F)c2)C(=O)O1` [EXAMP. 21, 7-(4-{4-[5-(S)-(acetylamino-methyl)-2-oxo-oxazolidin-3-yl]-2-fluoro-phenyl}-piperazin-1-yl)-1-cyclopropyl-6-fluoro-4-oxo-1,4-dihydro-[1,8]Naphthyridine-3-carboxylic Acid]: the MIC in experiment [1] was under 0.125 µg/mL; in experiment [2], 0.25 µg/mL (≈ 0.429 µM); in the experiment on M. Catarrahalis, 0.5 µg/mL (≈ 0.858 µM); in the experiment with S. agalactiae it was under 0.125 µg/mL; with S. pyogenes it was under 0.125 µg/mL; in [3] it was under 0.125 µg/mL. The MIC in the experiment on S. epidermidis is under 0.125 µg/mL; in the experiment with B. fragilis, 0.25 µg/mL (≈ 0.429 µM); against H. influenzae it was 2 µg/mL (≈ 3.43 µM); against E. coli, 64 µg/mL (≈ 110 µM).
Turning to `CC(=O)NC[C@H]1CN(c2ccc(N3CCN(c4c(F)cc5c(=O)c(C(=O)O)cn(CCF)c5c4F)CC3)c(F)c2)C(=O)O1` [EXAMP. 22, 7-(4-{4-[5-(S)-(acetylamino-methyl)-2-oxo-oxazolidin-3-yl]-2-fluoro-phenyl}-piperazin-1-yl)-6,8-difluoro-1-(2-fluoro-ethyl)-4-oxo-1,4-dihydro-quinoline-3-carboxylic Acid], the MIC in [1] was under 0.125 µg/mL; in [2], under 0.125 µg/mL; in the experiment on M. Catarrahalis it was 0.5 µg/mL (≈ 0.826 µM); with S. agalactiae, under 0.125 µg/mL; with S. pyogenes, under 0.125 µg/mL; in [3] it was 0.25 µg/mL (≈ 0.413 µM). Moreover, the MIC in the experiment on S. epidermidis was under 0.125 µg/mL; against B. fragilis, 0.5 µg/mL (≈ 0.826 µM); against H. influenzae, 2 µg/mL (≈ 3.3 µM); in the experiment with E. coli, 64 µg/mL (≈ 106 µM).

These data come from patent publication US20040147545A1, “Derivatives of oxazolidinones as antibacterial agents” (priority 2001, published 2004).
